Measurements published in US20080171788A1, “Medicament For Irritable Bowel Syndrome” (priority 2005, published 2008).
“Also recorded” adds a separate entry of the source.

Key:
male Wister rats = assay: Rat restraint stress-induced defecation model; format: in vivo; conditions: for evacuation suppressing action: 10 mg/kg p.o., used independently, 10 mg/kg; for number of excreted stools, comparison with the non-administration group: each of the 1, 3 and 10 mg/kg administration groups, N=10
Experimental: IBS-treating effect of the medicine of the invention was evaluated using a test method in which the amount of evacuations is measured by applying a restriction stress to rats (cf. J. Pharmacol. Exp. Ther. (1992) 261, 297-303). […] Each drug to be tested was administered to male Wister rats (body weight 250 to 320 g, 10 animals for each group), and a restraint stress was loaded 30 minutes thereafter. A restraint stress cage (KN-468, 265 mm in width×95 mm in length×200 mm in height, mfd. by Natsume Seisakusho, Tokyo) was used for the restraint stress loading, and the number of excreted stool was counted 1 hour after the stress loading. […] The control means the number of stools at the time of no stress loading, namely the reference value.

α1 receptor = assay: Affinity for other receptors: α1; format: binding
5-HT2B receptor = 5-HT2B receptor (Homo sapiens, UniProt P41595); conditions: in comparison with 5-HT1A, 5-HT1B, 5-HT2A, 5-HT2C, 5-HT3, 5-HT6, 5-HT7, α1, M1 and D2 receptors; cited from earlier work
Sequence of 5-HT2B receptor (P41595 whole entry): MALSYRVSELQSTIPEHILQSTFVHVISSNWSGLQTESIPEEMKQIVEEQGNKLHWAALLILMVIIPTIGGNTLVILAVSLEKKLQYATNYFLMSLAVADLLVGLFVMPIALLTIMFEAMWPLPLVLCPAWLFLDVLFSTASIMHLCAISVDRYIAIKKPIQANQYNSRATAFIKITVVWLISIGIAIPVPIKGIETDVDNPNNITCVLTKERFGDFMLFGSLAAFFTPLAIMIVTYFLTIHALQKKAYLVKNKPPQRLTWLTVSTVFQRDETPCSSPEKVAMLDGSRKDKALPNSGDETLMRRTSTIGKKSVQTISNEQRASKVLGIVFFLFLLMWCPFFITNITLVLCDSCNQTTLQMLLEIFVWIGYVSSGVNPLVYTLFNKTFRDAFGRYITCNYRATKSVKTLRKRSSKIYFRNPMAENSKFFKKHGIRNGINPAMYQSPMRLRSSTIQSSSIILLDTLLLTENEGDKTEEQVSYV

SMILES	evacuation suppressing action (male Wister rats)	number of excreted stools, comparison with the non-administration group (male Wister rats)	further results
Cl.NC(N)=NC(=O)c1ccc2c(c1)C1(CCCO1)c1ccccc1-2 (single isomer, unassigned) [Production Example 60b]			evacuation suppression action (male Wister rats; 3 mg/kg (p.o.)): suppression action similar to the level of Production Example 3
Cl.NC(N)=NC(=O)c1ccc2c(c1)C(O)c1ccccc1-2 (centres unmarked) [Production Example 3, N-(diaminomethylene)-9-hydroxy-9H-fluorene-2-carboxamide hydrochloride]			IC50 (α1 receptor): ≥ 1000 nM; evacuation suppression action (male Wister rats; 3 mg/kg intraperitoneally (i.p.)): significant suppression action
CC(C)c1cc(-c2ccc(F)c3ccccc23)nc(N)n1 [RS-127445, 2-amino-4-(4-fluoronaphtho-1-yl)-6-isopropylpyrimidine]	did not show the evacuation suppressing action; also recorded: do not show the reaction	Significant difference was not found	selectivity for 5-HT2B receptor (5-HT2B receptor): ≥ 1,000 times
CC1CCN(CC[C@H]2CCCN2S(=O)(=O)c2cccc(O)c2)CC1 [SB-269970, (R)-3-(2-(2-(4-methylpiperidine-1-yl)ethyl)pyrrolidine-1-sulfonyl)phenol]	did not show the evacuation suppressing action; also recorded: do not show the reaction	Significant difference was not found	
